# Counter-ions that a name gives are not always drawn.
# Molecular target: T1, intracellular domain of DDR1 (Homo sapiens, UniProt Q08345)
# T1 construct: the intracellular domain of DDR1 (in a final concentration of 5 ng/μL) (Carna Biosciences, Inc.); purchased Carna Biosciences, Inc
# Assay: Evaluation of DDR1 inhibition activity with HTRF KinEASE-TK kit
# Assay type: biochemical
# Conditions: intracellular domain of DDR1 5 ng/μL, ATP 25 mol/L (so in the source), TK Substrate-biotin 1000 nmol/L, room temperature, one hour
# Method: The DDR1 inhibition activity of the compounds of Examples 1 to 51 was evaluated with HTRF® KinEASE-TK kit (Cisbio Bioassays).
# Each test substance was dissolved in dimethyl sulfoxide (hereinafter referred to as DMSO) and then used for the evaluation as described below. Moreover, each of test substances and reagents was diluted in the kinase buffer (Cisbio Bioassays) prepared by adding thereto MgCl2, MnCl2, DTT, and the Supplemental Enzyme buffer (Cisbio Bioassays) to concentrations of 5 mmol/L, 0.5 mmol/L, 0.25 mmol/L, and 50 nmol/L, respectively, and then used. Each test substance (in DMSO in a final concentration of 1%), the intracellular domain of DDR1 (in a final concentration of 5 ng/μL) (Carna Biosciences, Inc.), the phosphate donor ATP (in final concentration of 25 mol/L) (Sigma), and the substrate TK Substrate-biotin (in a final concentration of 1000 nmol/L) (Cisbio Bioassays) were added to a 384-well black plate (Corning) and allowed to react at room temperature for one hour. After completion of the reaction, the TK Antibody-Cryptate (Cisbio Bioassays) and the Streptavidin-XL665 (Cisbio Bioassays) were added thereto and allowed to react at room temperature for one hour. In addition, the plate was provided with a well to which a test substance was not added, and with a well to which the intracellular domain of DDR1 and a test substance were not added.
# The fluorescence intensity in each well was measured using a multi-label counter (Envision, PerkinElmer; excitation wavelength: 320 nm, measurement wavelength: 665 nm and 620 nm) to calculate a Ratio (the fluorescence intensity at 665 nm/the fluorescence intensity at 620 nm). The inhibition rate (%) of a test substance at each concentration was calculated based on the formula below. Inhibition rate (%)=([the Ratio obtained from the well containing no test substance]−[the Ratio from a well containing a test substance])/([the Ratio obtained from the well containing no test substance]−[the Ratio obtained from the well containing no intracellular domain of DDR1 and no test substance])×100
# The calculated inhibition rates were fitted to a sigmoidal dose-response curve by regression analysis using the Prism 5.04 (GraphPad Software, Inc.) to calculate the ICso0 value of the test substance.
# T1 sequence (Q08345 444-876 isoform Q08345-2 limits assumed): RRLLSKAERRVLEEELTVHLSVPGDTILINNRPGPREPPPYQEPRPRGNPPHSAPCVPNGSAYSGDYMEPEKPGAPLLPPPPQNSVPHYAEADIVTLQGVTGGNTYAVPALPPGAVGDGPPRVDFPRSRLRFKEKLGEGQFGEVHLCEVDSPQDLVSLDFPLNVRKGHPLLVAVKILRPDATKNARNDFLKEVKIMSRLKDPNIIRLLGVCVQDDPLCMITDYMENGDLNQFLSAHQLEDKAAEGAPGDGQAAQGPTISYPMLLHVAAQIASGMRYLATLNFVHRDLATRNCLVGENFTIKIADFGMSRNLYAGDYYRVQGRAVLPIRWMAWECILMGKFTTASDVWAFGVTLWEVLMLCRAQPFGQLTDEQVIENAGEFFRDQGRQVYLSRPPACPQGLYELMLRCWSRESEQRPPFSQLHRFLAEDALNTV
row,SMILES,IC50
1,"NC(=O)c1ccc(Oc2ccccc2CNC(=O)Nc2cc(C(F)(F)F)ccc2OC2CCNCC2)cc1 [Compound of Example 41, 4-(2-((3-(2-(piperidin-4-yloxy)-5-(trifluoromethyl)phenyl)ureido)methyl)phenoxy)benzamide]",35.2 nM
2,CNC(=O)c1ccc(Oc2ccccc2CNC(=O)Nc2cccc(C(F)(F)F)c2)cc1 [Compound of Example 42],21.5 nM
3,"CNC(=O)c1ccc(Oc2ccccc2CNC(=O)Nc2cc(C(F)(F)F)ccc2OC2COC2)cc1 [Compound of Example 43, 4-(2-((3-(2-(oxetan-3-yloxy)-5-(trifluoromethyl)phenyl)ureido)methyl)phenoxy)-N-methyl-benzamide]",78.5 nM
4,NC(=O)c1cccc(Oc2ccccc2CNC(=O)Nc2cccc(C(F)(F)F)c2)c1 [Compound of Example 44],23.7 nM
5,CCOc1ccc(C(F)(F)F)cc1NC(=O)NCc1ccccc1Oc1ccc(C(N)=O)cc1 [Compound of Example 46],22.5 nM
6,"NC(=O)c1ccc(Oc2ccccc2CNC(=O)Nc2cccc(C(F)(F)F)c2)nc1 [Compound of Example 47, 6-(2-((3-(3-(trifluoromethyl)phenyl)ureido)methyl)phenoxy)nicotinamide]",23.4 nM
7,"CNC(=O)c1ccc(Oc2ccccc2CNC(=O)Nc2cccc(C(F)(F)F)c2)nc1 [Compound of Example 48, N-methyl-6-(2-((3-(3-(trifluoromethyl)phenyl)ureido)methyl)phenoxy)nicotinamide]",29.1 nM

# The next molecules have a lower IC50 than those just listed; values first:
row,IC50,SMILES
1,4.64 nM,"CN1CCN(Cc2ccc(NC(=O)NCc3ccccc3Oc3ccc(C(N)=O)cc3)cc2C(F)(F)F)CC1 [Compound of Example 38, 4-(2-((3-(4-((4-methylpiperazin-1-yl)methyl)-3-(trifluoromethyl)phenyl)ureido)methyl)phenoxy)benzamide]"
2,4.2 nM,"NC(=O)c1ccc(Oc2ccccc2CNC(=O)Nc2cc(CN3CCNCC3)cc(C(F)(F)F)c2)cc1 [Compound of Example 39, 4-(2-((3-(3-((piperazin-1-ylmethyl)-5-(trifluoromethyl)phenyl)ureido)methyl)phenoxy)benzamide hydrochloride]"
3,8.91 nM,"NC(=O)c1ccc(Oc2ccccc2CNC(=O)Nc2ccc(CN3CCNCC3)c(C(F)(F)F)c2)cc1 [Compound of Example 40, 4-(2-((3-(4-((piperazin-1-ylmethyl)-5-(trifluoromethyl)phenyl)ureido)methyl)phenoxy)benzamide hydrochloride]"
4,19.3 nM,"NC(=O)c1ccc(Oc2ccccc2CNC(=O)Nc2cccc(Cl)c2)cc1 [Compound of Example 49, 4-(2-((3-(3-chlorophenyl)ureido)methyl)phenoxy)benzamide]"
5,12.3 nM,COc1ccc(Cl)cc1NC(=O)NCc1ccccc1Oc1ccc(C(N)=O)cc1 [Compound of Example 50]
6,18.3 nM,CCOc1ccc(Cl)cc1NC(=O)NCc1ccccc1Oc1ccc(C(N)=O)cc1 [Compound of Example 51]

# Reference: patent US10519106B2, “Urea derivative and use therefor” (Toray Industries, Inc., priority 2015, dated 2019)
